Experimental data from patent US5460820A, “Methods for providing testosterone and optionally estrogen replacement therapy to women” (TheraTech, Inc., priority 1993, dated 1995).

Tests used:
[1] = injectable esters; cited from earlier work
[2] = without some form of permeation enhancement; cited from earlier work
[3] = solubility in receiver medium; format: physicochemical; settings: 0.02% sodium azide solution, skin surface temperature 32°±1° C.
[4] = in vivo; cited from earlier work

CCC(=O)O[C@H]1CC[C@H]2[C@@H]3CCC4=CC(=O)CC[C@]4(C)[C@H]3CC[C@]12C [testosterone propionate]
fluctuations in hormone levels [1]: marked supraphysiological fluctuations in hormone levels

C[C@]12CC[C@H]3[C@@H](CCC4=CC(=O)CC[C@@]43C)[C@@H]1CC[C@@H]2O [testosterone]
passage through non-scrotal skin [2]: does not pass through non-scrotal skin at practical fluxes
solubility in receiver medium [3]: adequate to ensure sink conditions throughout the experiment

C[C@]12CCC(=O)C=C1CC[C@@H]1[C@@H]2CC[C@@]2(C)[C@H]1CC[C@]2(C)O [methyl testosterone]
hepatotoxicity [4]: known to be hepatotoxic

CCCCCCC(=O)O[C@H]1CC[C@H]2[C@@H]3CCC4=CC(=O)CC[C@]4(C)[C@H]3CC[C@]12C [testosterone enanthate]
fluctuations in hormone levels [1]: marked supraphysiological fluctuations in hormone levels
